How the values were obtained:
[1] = system: mouse asthma model induced by OVA; assay: Asthma induced by ovalbumin in Balb/c mice: IgE level in serum by ELISA; format: in vivo; details: oral; for content of IgE in mice serum (conclusion in words): model of mouse asthma induced by OVA, samples; for therapeutic effect on bronchial asthma induced by OVA: mouse
[2] = system: inflammatory cells in bronchoalveolar lavage fluid of mice; assay: Determination of inflammatory cells in bronchoalveolar lavage fluid of mice (OVA asthma model); format: in vivo, BALB/C mice; design: unit not given here; details: oral
Description: 144 6-week-old BALB/C mice (18-20 g) were divided into 24 groups: control group, placebo group, dexamethasone group (3 mg/kg) and the drug groups. There were 6 in each group. The control group was given normal saline without any treatment. The other groups were sensitized by intraperitoneal injection of OVA 20 μg and aluminum hydroxide 200 μL PBC (2 mg, prepared into emulsion). […] On day 21, 22 and 23, the therapeutic agent (i.e. 3 mg/kg dexamethasone in the positive control group and oral administration in the drug group) was given orally. From day 17 to 23, PBS was given to the control group and placebo group respectively, PBS (without OVA) was given to the control group. On day 0 and day 14, the normal saline was nebulized for 30 minutes to remove the aluminum hydroxide on day 21, 22 and 23 See in Table 2.

[3] = system: COPD rats induced by smoke exposure; assay: COPD induced by smoke exposure in rats: lung function FEV0.2/FVC; format: in vivo, Wistar rats; details: for FEV2/FVC % (FEV0.2/FVC %, forced expiratory index within 200 ms): 180 days; for effect in COPD rats compared with inhaled budesonide: high dose group, oral
[4] = Table 1-1 (1st time), 20 mg/kg, 24 hours after last OVA stimulation

| SMILES | Concentration of IgE in serum [1, 4] [ng/mL] | Concentration of IgE in serum ([1]; Table 1-2 (2nd time), 15 mg/kg) [ng/mL] | Concentration of IgE in serum ([1]; Table 1-2 (2nd time), 30 mg/kg) [ng/mL] | Concentration of IgE in serum ([1]; Table 1-2 (2nd time), 60 mg/kg) [ng/mL] | Acidic cells in bronchoalveolar lavage fluid ([2]; 2 mg/kg) | Neutral cells in bronchoalveolar lavage fluid ([2]; 2 mg/kg) | Total inflammatory cells in bronchoalveolar lavage fluid ([2]; 2 mg/kg) | lymphocyte in bronchoalveolar lavage fluid ([2]; 2 mg/kg) | Acidic cells in bronchoalveolar lavage fluid ([2]; 20 mg/kg) | Neutral cells in bronchoalveolar lavage fluid ([2]; 20 mg/kg) | Total inflammatory cells in bronchoalveolar lavage fluid ([2]; 20 mg/kg) | lymphocyte in bronchoalveolar lavage fluid ([2]; 20 mg/kg) | Neutral cells in bronchoalveolar lavage fluid ([2]; 200 mg/kg) | Total inflammatory cells in bronchoalveolar lavage fluid ([2]; 200 mg/kg) | lymphocyte in bronchoalveolar lavage fluid ([2]; 200 mg/kg) | FEV2/FVC % (FEV0.2/FVC %, forced expiratory index within 200 ms) ([3]; 20 mg/kg oral) [%] | FEV2/FVC % (FEV0.2/FVC %, forced expiratory index within 200 ms) ([3]; 40 mg/kg oral) [%] | FEV2/FVC % (FEV0.2/FVC %, forced expiratory index within 200 ms) ([3]; 80 mg/kg oral) [%] | effect in COPD rats compared with inhaled budesonide [3] | content of IgE in mice serum (conclusion in words) [1] | other results |
| --- | --- | --- | --- | --- | --- | --- | --- | --- | --- | --- | --- | --- | --- | --- | --- | --- | --- | --- | --- | --- | --- |
| CC(C)=CCC[C@](C)(O[C@@H]1OC(CO)[C@H](O)[C@H](O)C1O)C1CC[C@]2(C)C1C(=O)CC1[C@@]3(C)CC[C@H](O)C(C)(C)C3CC[C@]12C (stereo partly drawn) [IC, 3p-hydroxyl-20(S)—O-β-D-galactopyranosyl dammarane-24-ene-12-one] | 975.82 ± 260.32 | 1908.70 ± 221.74 | 1738.93 ± 124.22 | 1575.92 ± 148.33 | 31.51 ± 16.14 | 13.29 ± 7.12 | 50.77 ± 32.49 | 9.30 ± 6.85 | 18.44 ± 7.78 | 8.16 ± 5.03 | 32.95 ± 21.07 | 6.49 ± 5.28 | 5.17 ± 3.19 | 18.25 ± 9.48 | 3.77 ± 2.81 | 65.45 ± 14.17 | 76.64 ± 7.98 | 83.15 ± 8.42 | superior to budesonide | – | Acidic cells in bronchoalveolar lavage fluid ([2]; 200 mg/kg): 8.72 ± 3.31 |
| CCCC1O[C@@H]2C[C@H]3[C@@H]4CCC5=CC(=O)C=C[C@]5(C)[C@H]4[C@@H](O)C[C@]3(C)[C@]2(C(=O)CO)O1 (stereo partly shown) [Budesonide, reference compound] | – | – | – | – | – | – | – | – | – | – | – | – | – | – | – | – | – | – | – | – | FEV2/FVC % (FEV0.2/FVC %, forced expiratory index within 200 ms) ([3]; nebulized 0.25 mg/mL, 4 mL, 30 minutes): 79.47 ± 12.39 % |
| CC(C)=CCC[C@](C)(O[C@@H]1OC(C)[C@H](O)[C@H](O)C1O)C1CC[C@]2(C)C1[C@H](O)CC1[C@@]3(C)CC[C@H](O)C(C)(C)C3CC[C@]12C (stereo partly shown) [IK] | 1020.78 ± 136.94 | 1720.54 ± 165.49 | 1406.28 ± 171.05 | 1217.43 ± 162.75 | – | – | – | – | – | – | – | – | – | – | – | 67.67 ± 11.39 | 78.59 ± 6.12 | 85.56 ± 10.07 | superior to budesonide | significantly reduce | therapeutic effect on bronchial asthma induced by OVA [1]: obvious therapeutic effect |
| CC(C)=CCC[C@](C)(O[C@@H]1OC[C@H](O)[C@H](O)C1O)C1CC[C@]2(C)C1[C@H](O)CC1[C@@]3(C)CC[C@H](O)C(C)(C)C3CC[C@]12C (stereo partly drawn) [IL, 20-O-α-L-arabinopyrauosyl-20(S)-panaxadiol glycoside] | 996.36 ± 102.45 | 1548.67 ± 190.16 | 1311.37 ± 154.37 | 1080.12 ± 131.23 | – | – | – | – | – | – | – | – | – | – | – | 71.15 ± 10.34 | 80.25 ± 8.79 | 89.62 ± 5.14 | superior to budesonide | significantly reduce | therapeutic effect on bronchial asthma induced by OVA [1]: obvious therapeutic effect |
| CC(=O)O[C@H]1CC[C@@]2(C)C(CC[C@]3(C)C2CC(=O)C2C([C@](C)(CCC=C(C)C)O[C@@H]4OC(CO)[C@@H](O)[C@H](O)C4O)CC[C@]23C)C1(C)C (stereo partly drawn) [IA, 3-O-acetyl-20(S)—O-β-D-glucopyranosyl Dammarane-24-ene-12-one] | – | – | – | – | 29.23 ± 10.29 | 10.40 ± 6.48 | 40.75 ± 26.14 | 11.81 ± 5.97 | 11.46 ± 4.12 | 6.38 ± 3.45 | 26.93 ± 15.01 | 8.84 ± 5.63 | 2.08 ± 2.01 | 10.85 ± 4.62 | 4.27 ± 3.16 | – | – | – | – | – | – |
| CC(C)=CCC[C@](C)(O[C@@H]1OC[C@@H](O)[C@H](O)C1O)C1CC[C@]2(C)C1[C@H](O)CC1[C@@]3(C)CC[C@H](O)C(C)(C)C3CC[C@]12C (stereo partly drawn) [IJ, 20-O-β-D-xylopyranosyl-20(S)-panaxadiol glycoside] | 1250.07 ± 144.38 | 2068.41 ± 153.29 | 1824.85 ± 155.74 | 1622.18 ± 130.38 | – | – | – | – | – | – | – | – | – | – | – | 65.78 ± 12.35 | 77.57 ± 9.69 | 84.36 ± 7.10 | superior to budesonide | – | – |
| COC(=O)C1O[C@@H](O[C@@](C)(CCC=C(C)C)C2CC[C@]3(C)C2C(=O)CC2[C@@]4(C)CC[C@H](OC(C)=O)C(C)(C)C4CC[C@]23C)C(O)[C@@H](O)[C@@H]1O (stereo partly drawn) [IA-1, 3-β-O-acetyl-20(S)—O-β-D-glucopyranuronic acid methyl ester dammarane-24-ene-12-one] | – | – | – | – | 26.55 ± 13.23 | 10.21 ± 6.07 | 43.42 ± 26.14 | 13.22 ± 8.27 | 13.26 ± 3.92 | 3.95 ± 2.41 | 28.11 ± 14.91 | 4.76 ± 3.18 | 3.75 ± 2.46 | 11.48 ± 4.39 | 3.82 ± 2.66 | – | – | – | – | – | Acidic cells in bronchoalveolar lavage fluid ([2]; 200 mg/kg): 5.22 ± 3.31 |
| CC(C)=CCC[C@](C)(O[C@@H]1OC(CO)[C@@H](O)[C@H](O)C1O)C1CC[C@]2(C)C1C(=O)CC1[C@@]3(C)CC=CC(C)(C)C3CC[C@]12C (stereo partly drawn) [IH, 20(S)—O-β-D-glucopyranosyl dammarane-3, 24-diene-12-one] | 1191.08 ± 107.59 | 1682.40 ± 182.76 | 1311.37 ± 165.93 | 1150.59 ± 129.55 | – | – | – | – | – | – | – | – | – | – | – | 63.27 ± 14.65 | 73.59 ± 12.14 | 85.51 ± 15.27 | superior to budesonide | significantly reduce | therapeutic effect on bronchial asthma induced by OVA [1]: obvious therapeutic effect |
